Test [1] deals with pancreatic carcinoma. Put plainly: Second-line therapy following progression on FOLFIRINOX
It counts as in vivo, human. The following applies: Overall (mean). The source says: Overall Survival (OS) increased from 6.8 months with Gemcitabine to 11.1 months with FOLFIRINOX (p<0.001). However, the Complete Response Rate (CR) was only 0.6%.

Test [2] concerns locally advanced and metastatic pancreatic carcinoma. Conditions: first-line therapy, n = 171 per arm; cited from earlier work.
Test [3] concerns pancreatic carcinoma. The following applies: second-line, cited from earlier work.
Test [4] relates to TME of metastatic colorectal carcinoma. The following applies: 9 patients vs. historical controls. The source says: Colorectal carcinoma was used as a GI model for pancreatic carcinoma in order to obtain biopsy specimens of the TME. We used […]® to determine if there is improvement in the Teff/Treg ratio in the TME secondary to the […]® induction of desirable chemokines, such as CXCL 10 (Teff-attractant), in the TME, while decreasing the unfavorable chemokines, such as CCL22 (C-C Motif Chemokine Ligand 22; Treg-attractant), thereby increasing the Teff/Treg ratio in the TME.
See, Example Section below.

In test [5] the test system is human bladder tumor xenografts. Description: Human bladder tumor xenografts in nude mice. It counts as in vivo. (Xenograft models place foreign cells or tissue in a host animal.)
In test [6] the test system is renal cell carcinoma (786-0) xenografts. Description: Renal cell carcinoma (786-0) xenografts in nude mice. Conditions: for tumor growth: FIG. 7, vs untreated controls. It counts as in vivo.
For test [7] the test system is unchanged. Conditions: Hubbell, 1990, cited from earlier work.
Test [8] concerns B16 melanoma tumors. Conditions: n = 10; for Number of Partial Responses (PR) / Number of Complete Responses (CR): Day 30; for Number of Complete Responses (CR): RECIST v1.1.
Method: Rintatolimod together with anti-PD-L1 antibodies were tested for anti-tumor activity against established subcutaneous B16 melanoma tumors in C57BL/6 mice. Mice (10 animals per group) were inoculated with 0.4×10E6 B16-F10 tumor cells in their shaved rear flanks. Seven days later (when tumors reached 0.3 to 0.5 cm in their largest diameter), mice were randomized for tumor sizes, and individually tagged and were allocated to the following six treatment groups: • No treatment (negative controls) • Rintatolimod alone 100 μg/dose 4× • Rintatolimod alone 250 μg/dose 4× • Anti-PD-L1 mAb alone • Rintatolimod 100 μg/dose 4× plus anti-PD-L1 mAb • Rintatolimod 250 μg/dose 4× plus anti-PD-L1 mAb
Rintatolimod was injected intravenously at 100 or 250 micrograms/dose and was repeated 4 times, 5 days apart. Anti-PD-L1 mAb (clone 10F.9G2, BioXCell) was administered intraperitoneally on Days 1 and 3 after each rintatolimod injection at a 200 microgram/dose. Tumors were measured 3 times per week using a set of calipers, taking measurement of 2 opposing diameters and were recorded as tumor areas.
Results were presented as tumor sizes for individual mice throughout the time of therapy, average tumor size in each group and survival up to Day 30 (time to euthanasia).
® and anti-PD-L1 antibodies were tested for anti-tumor activity against established subcutaneous B16 melanoma tumors in C57BL/6 mice. Briefly, mice (10 animals per group) were inoculated with 0.4×10E6 (i.e., 400,000) B16-F10 tumor cells in their shaved rear flanks. Seven days later, mice were randomized to six treatment groups as follows: (Group 1) No treatment (negative controls); (Group 2) […] ® alone 100 μg/dose 4×; (Group 3) […] ® alone 250 μg/dose 4×; (Group 4) Anti-PD-L1 mAb alone; (Group 5) […] ® 100 μg/dose 4× plus anti-PD-L1 mAb; (Group 6) […] ® 250 μg/dose 4× plus anti-PD-L1 mAb. mAb refers to monoclonal antibody.
® was injected IV at 100 or 250 μg/dose 4 times, 5 days apart. Anti-PD-L1 mAb was administered IP on Days 1 and 3 after each […] ® dose at 200 μg/dose. Tumors were measured 3 times per week using calipers, measuring 2 opposing diameters. […] Results were presented as tumor sizes for individual mice throughout time of therapy up to Day 30.
For test [9], the system named is pancreatic tumors. Conditions: n = 8 each.
Method: Please note that all four cohorts (control, […] ®, anti-PD-L1, […] ®+anti-PD-L1) were studied in the same parallel experiment.
In this experiment, sub-therapeutic doses of […] ® were administered in mouse models of pancreatic cancer.

The values below come from patent US12714723B2, “Compositions and methods for cancer therapy” (AIM ImmunoTech Inc., priority 2018, dated 2026).

Like-named read-outs stand apart in the source and are kept apart here. Marks after values point to notes of the source that are not given here.

As for `Nc1ccn([C@@H]2O[C@H](CO)[C@@H](O)C2(F)F)c(=O)n1` [Gemcitabine], the “Partial Response Rates (PR)” value in [1] is 6.4%; in test [3] (Gilabert, et al. 2017), 5.5%; in test [3] (Viaud, et al. 2017), 8.3%; in test [3] (da Rocha, et al. 2015), 0%. Further, the “Complete Response Rates (CR)” value was 0%* in [1] (weighted average); 0% in test [3] (Gilabert, et al. 2017); 0% in test [3] (Viaud, et al. 2017); 0% in [3] (da Rocha, et al. 2015). Also, the “Progression Free Survival (PFS)” value in test [1] (weighted average) is given as 2.24* months; in [2], 3.3 months; in test [3] (Gilabert, et al. 2017, n = 72), 2.5 months; in [3] (Viaud, et al. 2017, n = 96), 2.1 months; in test [3] (da Rocha, et al. 2015, n = 20), 2.0 months. For the same compound, the “Overall Survival (OS)” value was 4.05* months in test [1] (weighted average based on n in each study); 6.8 months in [2]; 3.7 months in test [3] (Viaud, et al. 2017, n = 96); 5.7 months in [3] (da Rocha, et al. 2015, n = 20). Moreover, the “Complete Response Rates (CR), %” value in [2] is on record as 0(0) %. For the same compound, the “Partial Response Rates (PR), %” value in test [2] is listed as 9.4%.

Take “polyriboinosinic:polyribocytidylic(12:1)uridylic acid”: the “ratio of Teff/Treg markers in the TME” value in test [4] is listed as “improved ratios”. For the same compound, in test [5], the “growth of human bladder tumor xenografts” value is “significantly inhibited”. Further, the “survival of nude mice” value in test [6] (FIG. 8, 100% death rate for untreated controls) is 100%. Moreover, the tumor growth entry in [6] (monotherapy, listed as rintatolimod) is on record as “tumor regression was observed in each mouse”. In addition, the tumor growth result in test [6] (monotherapy, listed as tdsRNA) is on record as “growth inhibition”. Besides, in test [6] (monotherapy, 100% of the control group had died), the “mice free of the residual tumor” value was determined as 90%. Also, the tumor growth inhibition result in [7] (p<0.001) was “statistically significant tumor growth inhibition”. Besides, in [7] (p<0.002), the survival result is “increased survival”. In test [8] (rintatolimod 100 μg/dose 4×), the “Total # Tumor Responses CR + PR” value was 0, the “Number of Partial Responses (PR)” value was found to be 0 and the “Number of Complete Responses (CR)” value was 0. In addition, in test [8] (rintatolimod 250 μg/dose 4×), the “Total # Tumor Responses CR + PR” value is 0, the “Number of Partial Responses (PR)” value was 0 and the “Number of Complete Responses (CR)” value is reported as 0. In [9] (sub-therapeutic doses, control 33), the “Time to Progression Median” value turned out to be 33 days. For the same compound, the “Increased Time to Progression” value in test [9] (versus control) turned out to be 0 days.
